Read-outs that look alike come from different tables or passages of the source. Peptide text beside a SMILES is read from it. * marks the point of attachment. 5FAM = O=C1OC2(c3ccc(O)cc3Oc3cc(O)ccc32)c2ccc(C(=O)*)cc21
Assays:
[1] = system: rat primary cortical neurons
MARK2 [2] = target: MARK2 (Homo sapiens, UniProt Q7KZI7); test: Antibody-linked fluorescence polarization assay of tR1 phosphorylation by MARK2; assay type: biochemical; conditions: 10 μM FlutR1, MARK2, ATP, antibody versus absence of MARK2, ATP, or antibody
Sequence of MARK2 (Homo sapiens, UniProt Q7KZI7) (Q7KZI7 whole entry): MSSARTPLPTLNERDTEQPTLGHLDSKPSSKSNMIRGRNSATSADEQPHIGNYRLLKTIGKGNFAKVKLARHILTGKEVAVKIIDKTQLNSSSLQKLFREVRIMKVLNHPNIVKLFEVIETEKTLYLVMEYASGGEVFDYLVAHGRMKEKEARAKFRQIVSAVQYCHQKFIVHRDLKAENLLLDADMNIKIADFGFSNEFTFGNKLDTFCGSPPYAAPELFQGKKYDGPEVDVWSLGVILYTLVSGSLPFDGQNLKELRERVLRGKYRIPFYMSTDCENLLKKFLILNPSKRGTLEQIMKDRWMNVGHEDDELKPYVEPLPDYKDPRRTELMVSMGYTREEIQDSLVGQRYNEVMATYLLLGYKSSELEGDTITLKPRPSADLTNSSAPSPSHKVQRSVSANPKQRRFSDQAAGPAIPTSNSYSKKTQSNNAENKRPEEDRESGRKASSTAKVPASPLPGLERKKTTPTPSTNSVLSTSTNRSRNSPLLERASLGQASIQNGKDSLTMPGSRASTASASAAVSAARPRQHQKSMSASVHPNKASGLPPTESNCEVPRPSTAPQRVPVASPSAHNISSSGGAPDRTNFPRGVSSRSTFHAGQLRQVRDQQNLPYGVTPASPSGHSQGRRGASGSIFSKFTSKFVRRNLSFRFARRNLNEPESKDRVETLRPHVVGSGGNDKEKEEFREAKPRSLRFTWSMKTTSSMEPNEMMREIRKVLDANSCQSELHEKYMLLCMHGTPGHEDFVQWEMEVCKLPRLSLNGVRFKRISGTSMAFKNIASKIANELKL
Experimental: The ability for MARK2 to phosphorylate tR1 in vitro was further validated by incubating ^FlutR1 peptides with MARK2 and ATP and monitoring the fluorescence polarization of the solution following addition of antibodies specific for hTau pSer262 (FIG. 6C). In these experiments, ^FlutR1 peptides and MARK2 were incubated with and without ATP for 60 minutes at 32° C. in phosphorylation buffer. Following incubation, antibodies specific for hTau pSer262 were added to the reaction and allowed to incubate for an additional 60 minutes at room temperature. Due to the slower tumbling rate of an antibody-linked (and presumably phosphorylated) ^FlutR1 peptide, it is believed that the fluorescence polarization of the phosphorylated tR1 peptide would be higher than that of its un-phosphorylated counterpart.
Analysis of the activity of MARK2 proteins was performed in 60-μL phosphorylation buffer (50 mM Tris-HCl, pH 8.0, 5 mM MgCl2, 2 mM EGTA, 0.5 mM DTT, 0.5 mM benzamidine HCl, 0.5 mM PMSF) containing 100 μM ATP, 10 μM of ^FlutR1, and 10 nM MARK2. The reaction mixture was incubated at 32° C. for 1 hour. […] Fluorescence polarization was then measured using a SpectraMax M5e multi-mode plate reader (Molecular Devices, Sunnyvale, Calif.) in 384-well plates (#3575, Corning, Corning, N.Y.). […]

MARK2 [3] = target: MARK2 (Rattus norvegicus, UniProt O08679); test: Immunofluorescence of PAO-induced MARK2-mediated tau Ser262 phosphorylation in neurons; assay type: cell-based
Sequence of MARK2 (Rattus norvegicus, UniProt O08679) (O08679 whole entry): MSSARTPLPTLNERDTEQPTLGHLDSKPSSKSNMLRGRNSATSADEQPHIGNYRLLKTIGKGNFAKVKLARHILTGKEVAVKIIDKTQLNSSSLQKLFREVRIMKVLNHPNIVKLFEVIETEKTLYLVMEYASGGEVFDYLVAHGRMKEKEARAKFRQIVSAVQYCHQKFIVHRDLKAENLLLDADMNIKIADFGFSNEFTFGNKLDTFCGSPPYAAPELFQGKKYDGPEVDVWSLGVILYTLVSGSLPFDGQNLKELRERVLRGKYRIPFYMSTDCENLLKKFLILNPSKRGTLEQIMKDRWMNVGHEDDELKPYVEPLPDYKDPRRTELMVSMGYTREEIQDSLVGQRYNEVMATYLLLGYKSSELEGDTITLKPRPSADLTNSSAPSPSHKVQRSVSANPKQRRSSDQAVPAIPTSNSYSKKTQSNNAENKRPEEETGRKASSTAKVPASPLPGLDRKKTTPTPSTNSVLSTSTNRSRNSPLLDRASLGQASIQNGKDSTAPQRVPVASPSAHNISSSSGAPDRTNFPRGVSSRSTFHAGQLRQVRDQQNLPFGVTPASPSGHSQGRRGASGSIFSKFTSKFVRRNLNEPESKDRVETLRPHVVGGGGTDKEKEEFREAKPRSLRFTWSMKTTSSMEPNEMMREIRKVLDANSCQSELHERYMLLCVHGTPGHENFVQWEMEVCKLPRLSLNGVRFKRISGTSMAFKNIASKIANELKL

CC[C@H](C)[C@H](NC(=O)[C@H](CCCCN)NC(=O)[C@H](CO)NC(=O)[C@H](CCCCN)NC(=O)[C@@H](NC(=O)[C@H](CC(N)=O)NC(=O)c1ccc2c(c1)C(=O)OC21c2ccc(O)cc2Oc2cc(O)ccc21)C(C)C)C(=O)NCC(=O)N[C@@H](CO)C(=O)N[C@H](C(=O)N[C@@H](CCC(=O)O)C(=O)N[C@@H](CC(N)=O)C(=O)N[C@@H](CC(C)C)C(=O)N[C@@H](CCCCN)C(N)=O)[C@@H](C)O [^FlutR1] (5FAM-NVKSKIGSTENLK-NH2)
intracellular uptake (fluorescence) ([1]; 10 μM FlutR1 alone, 4 hours): distinct fluorescent puncta within the cell body and neurites
intracellular distribution (fluorescence) ([1]; 10 μM FlutR1 with 50 nM Baf): no fluorescent puncta following treatment and diffuse green fluorescence within the cell soma
intracellular uptake (fluorescence) ([1]; 10 μM FlutR1 with 5 μM PAO): did not seem to affect the uptake
intracellular distribution (fluorescence) ([1]; 10 μM FlutR1 with 100 μM CLQ): significant loss of discrete fluorescent puncta
intracellular uptake (fluorescence) ([1]; 10 μM FlutR1 with 10 mM sodium azide): significant loss of fluorescent puncta within the cell body and neurites
fluorescence polarization after addition of hTau pSer262 antibody (MARK2 [2]): polarization to be highest in solutions containing all reaction components

CO/C1=C\C(C)=C\[C@@H](C)[C@@H](O)[C@@H](C)C/C(C)=C/C=C/[C@H](OC)[C@@H]([C@@H](C)[C@@H](O)[C@H](C)[C@@]2(O)C[C@@H](O)[C@H](C)[C@@H](C(C)C)O2)OC1=O [bafilomycin A1, reference compound]
effect of endosome disruptor alone on PAO-induced MARK2 mediated phosphorylation of tau (MARK2 [3]; without tR1, 5 μM PAO): Neither bafilomycin A1 nor chloroquine treatments alone affected

CCN(CC)CCCC(C)Nc1ccnc2cc(Cl)ccc12 (centres unmarked) [chloroquine, reference compound]
effect of endosome disruptor alone on PAO-induced MARK2 mediated phosphorylation of tau (MARK2 [3]): Neither bafilomycin A1 nor chloroquine treatments alone affected

— patent US20210147481A1, “PEPTIDE-BASED INHIBITORS OF MARK FAMILY PROTEINS” (Ohio Universtiy, priority 2017, published 2021)
